In ChEMBL document CHEMBL1122618, “Total chemical synthesis and antitumor evaluation of 4-demethoxy-10,10-dimethyldaunomycin” (1984):

Test system: Mus musculus
Experiment: The compound was tested intraperitoneally against P388 acute lymphocytic leukemia in mice (dose 10 mg/kg)
Format: functional
Conditions: route intraperitoneal

Which T/C does the source give for `CC(=O)[C@@]1(O)C[C@H](OC2CC(N)C(O)C(C)O2)c2c(O)c3c(c(O)c2C1(C)C)C(=O)c1ccccc1C3=O` (stereo partly specified) here?
Its T/C is greater than 316.
